Experimental data from ChEMBL document CHEMBL5634139, “Novel substituted 4-(Arylethynyl)-Pyrrolo[2,3-d]pyrimidines negative allosteric modulators (NAMs) of the metabotropic glutamate receptor subtype 5 (mGlu5) Treat depressive disorder in mice” (Eur J Med Chem, 2023).
The source made the active and inactive calls. The calls are words filed in the database; no cut-off is given here.

Tests used:
[1] = target: Metabotropic glutamate receptor 5 (Rattus norvegicus, UniProt P31424); assay: Negative allosteric modulation of rat mGluR5 expressed in HEK293 assessed as decrease in intracellular calcium incubated for 30 mins by Fluo-6 calcium dye based FLIPR assay; format: functional, cell-based
[2] = test system: Mus musculus; assay: Antidepressant activity in chronic unpredictable mild stress induced depression C57BL/6J mouse model assessed as downregulation of CORT level in peripheral serum at 20 mg/kg,IG administration for 3 days by ELISA; format: functional, organism-based; settings: time 3.0 day
[3] = test system: Mus musculus; assay: Antidepressant activity in chronic unpredictable mild stress induced depression C57BL/6J mouse model assessed as decrease in immobility time at 5 to 20 mg/kg,IG administration for 3 days by forced swimming test; format: functional, organism-based; settings: dose 5-20 mg/kg, time 3.0 day
[4] = test system: Mus musculus; assay: Antidepressant activity in chronic unpredictable mild stress induced depression C57BL/6J mouse model assessed as upregulation of TrkB phosphorylation in hippocampus at 10 mg/kg,IG administration for 3 days by Western blotting analysis; format: functional, organism-based; settings: time 3.0 day
[5] = test system: Mus musculus; assay: Antidepressant activity in chronic unpredictable mild stress induced depression C57BL/6J mouse model assessed as increase in time spent in central area at 10 mg/kg,IG administration for 3 days by open field test; format: functional, organism-based; settings: time 3.0 day
[6] = test system: Mus musculus; assay: Antidepressant activity in chronic unpredictable mild stress induced depression C57BL/6J mouse model assessed as decrease in immobility time at 5 to 20 mg/kg,IG administration for 3 days by tail suspension test; format: functional, organism-based; settings: dose 5-20 mg/kg, time 3.0 day
[7] = test system: Mus musculus; assay: Antidepressant activity in chronic unpredictable mild stress induced depression C57BL/6J mouse model assessed as upregulation of BDNF expression in hippocampus at 20 mg/kg,IG administration for 3 days by Western blotting analysis; format: functional, organism-based; settings: time 3.0 day
[8] = test system: Mus musculus; assay: Antidepressant activity in chronic unpredictable mild stress induced depression C57BL/6J mouse model assessed as downregulation of CORT level in peripheral serum at 10 mg/kg,IG administration for 3 days by ELISA; format: functional, organism-based; settings: time 3.0 day
[9] = test system: Mus musculus; assay: Antidepressant activity in chronic unpredictable mild stress induced depression C57BL/6J mouse model assessed as increase in body weight at 5 to 20 mg/kg,IG administration for 3 days; format: functional, organism-based; settings: dose 5-20 mg/kg, time 3.0 day
[10] = Toxicity in chronic unpredictable mild stress induced depression C57BL/6J mouse model assessed as change in creatine kinase level in heart at 40 mg/kg,IG administration for 3 days by ELISA; format: organism-based; settings: in vivo, po, 72 h, time 3 day
[11] = test system: Mus musculus; assay: Antidepressant activity in chronic unpredictable mild stress induced depression C57BL/6J mouse model assessed as increase in time spent in central area at 20 mg/kg,IG administration for 3 days by open field test; format: functional, organism-based; settings: time 3.0 day
[12] = test system: Mus musculus; assay: Antidepressant activity in chronic unpredictable mild stress induced depression C57BL/6J mouse model assessed as upregulation of 5-HT level in peripheral serum at 20 mg/kg,IG administration for 3 days by ELISA; format: functional, organism-based; settings: time 3.0 day
[13] = test system: Mus musculus; assay: Antidepressant activity in chronic unpredictable mild stress induced depression C57BL/6J mouse model assessed as upregulation of GluA1 expression in hippocampus at 5 to 20 mg/kg,IG administration for 3 days by Western blotting analysis; format: functional, organism-based; settings: dose 5-20 mg/kg, time 3.0 day
[14] = test system: Mus musculus; assay: Antidepressant activity in chronic unpredictable mild stress induced depression C57BL/6J mouse model assessed as change in total distance travelled at 5 to 20 mg/kg,IG administration for 3 days by open field test; format: functional, organism-based; settings: dose 5-20 mg/kg, time 3.0 day
[15] = Toxicity in chronic unpredictable mild stress induced depression C57BL/6J mouse model assessed as change in ALT level in liver at 40 mg/kg,IG administration for 3 days by ELISA; format: organism-based; settings: in vivo, po, 72 h, time 3 day
[16] = test system: Mus musculus; assay: Antidepressant activity in chronic unpredictable mild stress induced depression C57BL/6J mouse model assessed as increase in frequency entering the central area at 10 mg/kg,IG administration for 3 days by open field test; format: functional, organism-based; settings: time 3.0 day
[17] = test system: Mus musculus; assay: Antidepressant activity in chronic unpredictable mild stress induced depression C57BL/6J mouse model assessed as increase in frequency entering the central area at 20 mg/kg,IG administration for 3 days by open field test; format: functional, organism-based; settings: time 3.0 day
[18] = test system: Mus musculus; assay: Antidepressant activity in chronic unpredictable mild stress induced depression C57BL/6J mouse model assessed as upregulation of BDNF expression in hippocampus at 10 mg/kg,IG administration for 3 days by Western blotting analysis; format: functional, organism-based; settings: time 3.0 day
[19] = test system: Mus musculus; assay: Antidepressant activity in chronic unpredictable mild stress induced depression C57BL/6J mouse model assessed as upregulation of GluA2 expression in hippocampus at 5 to 20 mg/kg,IG administration for 3 days by Western blotting analysis; format: functional, organism-based; settings: dose 5-20 mg/kg, time 3.0 day
[20] = test system: Mus musculus; assay: Antidepressant activity in chronic unpredictable mild stress induced depression C57BL/6J mouse model assessed as upregulation of PKA phosphorylation in hippocampus at 20 mg/kg,IG administration for 3 days by Western blotting analysis; format: functional, organism-based; settings: time 3.0 day
[21] = Toxicity in chronic unpredictable mild stress induced depression C57BL/6J mouse model assessed as change in AST level in liver at 40 mg/kg,IG administration for 3 days by ELISA; format: organism-based; settings: in vivo, po, 72 h, time 3 day
[22] = test system: Mus musculus; assay: Antidepressant activity in chronic unpredictable mild stress induced depression C57BL/6J mouse model assessed as upregulation of TrkB phosphorylation in hippocampus at 20 mg/kg,IG administration for 3 days by Western blotting analysis; format: functional, organism-based; settings: time 3.0 day
[23] = test system: Mus musculus; assay: Antidepressant activity in chronic unpredictable mild stress induced depression C57BL/6J mouse model assessed as decrease in immobility time at 5 mg/kg,IG administration for 3 days by tail suspension test; format: functional, organism-based; settings: time 3.0 day
[24] = test system: Mus musculus; assay: Antidepressant activity in chronic unpredictable mild stress induced depression C57BL/6J mouse model assessed as downregulation of CORT level in peripheral serum at 5 mg/kg,IG administration for 3 days by ELISA; format: functional, organism-based; settings: time 3.0 day
[25] = test system: Mus musculus; assay: Antidepressant activity in chronic unpredictable mild stress induced depression C57BL/6J mouse model assessed as decrease in immobility time at 5 mg/kg,IG administration for 3 days by forced swimming test; format: functional, organism-based; settings: time 3.0 day
[26] = test system: Mus musculus; assay: Antidepressant activity in chronic unpredictable mild stress induced depression C57BL/6J mouse model assessed as increase in body weight at 5 mg/kg,IG administration for 3 days; format: functional, organism-based; settings: time 3.0 day
[27] = test system: Mus musculus; assay: Antidepressant activity in chronic unpredictable mild stress induced depression C57BL/6J mouse model assessed as increase in time spent in central area at 5 mg/kg,IG administration for 3 days by open field test; format: functional, organism-based; settings: time 3.0 day
[28] = test system: Mus musculus; assay: Antidepressant activity in chronic unpredictable mild stress induced depression C57BL/6J mouse model assessed as change in total distance travelled at 5 mg/kg,IG administration for 3 days by open field test; format: functional, organism-based; settings: time 3.0 day
[29] = test system: Mus musculus; assay: Antidepressant activity in chronic unpredictable mild stress induced depression C57BL/6J mouse model assessed as upregulation of 5-HT level in peripheral serum at 5 mg/kg,IG administration for 3 days by ELISA; format: functional, organism-based; settings: time 3.0 day
[30] = test system: Mus musculus; assay: Antidepressant activity in chronic unpredictable mild stress induced depression C57BL/6J mouse model assessed as increase in frequency entering the central area at 5 mg/kg,IG administration for 3 days by open field test; format: functional, organism-based; settings: time 3.0 day

Chain of Metabotropic glutamate receptor 5 (P31424 whole entry): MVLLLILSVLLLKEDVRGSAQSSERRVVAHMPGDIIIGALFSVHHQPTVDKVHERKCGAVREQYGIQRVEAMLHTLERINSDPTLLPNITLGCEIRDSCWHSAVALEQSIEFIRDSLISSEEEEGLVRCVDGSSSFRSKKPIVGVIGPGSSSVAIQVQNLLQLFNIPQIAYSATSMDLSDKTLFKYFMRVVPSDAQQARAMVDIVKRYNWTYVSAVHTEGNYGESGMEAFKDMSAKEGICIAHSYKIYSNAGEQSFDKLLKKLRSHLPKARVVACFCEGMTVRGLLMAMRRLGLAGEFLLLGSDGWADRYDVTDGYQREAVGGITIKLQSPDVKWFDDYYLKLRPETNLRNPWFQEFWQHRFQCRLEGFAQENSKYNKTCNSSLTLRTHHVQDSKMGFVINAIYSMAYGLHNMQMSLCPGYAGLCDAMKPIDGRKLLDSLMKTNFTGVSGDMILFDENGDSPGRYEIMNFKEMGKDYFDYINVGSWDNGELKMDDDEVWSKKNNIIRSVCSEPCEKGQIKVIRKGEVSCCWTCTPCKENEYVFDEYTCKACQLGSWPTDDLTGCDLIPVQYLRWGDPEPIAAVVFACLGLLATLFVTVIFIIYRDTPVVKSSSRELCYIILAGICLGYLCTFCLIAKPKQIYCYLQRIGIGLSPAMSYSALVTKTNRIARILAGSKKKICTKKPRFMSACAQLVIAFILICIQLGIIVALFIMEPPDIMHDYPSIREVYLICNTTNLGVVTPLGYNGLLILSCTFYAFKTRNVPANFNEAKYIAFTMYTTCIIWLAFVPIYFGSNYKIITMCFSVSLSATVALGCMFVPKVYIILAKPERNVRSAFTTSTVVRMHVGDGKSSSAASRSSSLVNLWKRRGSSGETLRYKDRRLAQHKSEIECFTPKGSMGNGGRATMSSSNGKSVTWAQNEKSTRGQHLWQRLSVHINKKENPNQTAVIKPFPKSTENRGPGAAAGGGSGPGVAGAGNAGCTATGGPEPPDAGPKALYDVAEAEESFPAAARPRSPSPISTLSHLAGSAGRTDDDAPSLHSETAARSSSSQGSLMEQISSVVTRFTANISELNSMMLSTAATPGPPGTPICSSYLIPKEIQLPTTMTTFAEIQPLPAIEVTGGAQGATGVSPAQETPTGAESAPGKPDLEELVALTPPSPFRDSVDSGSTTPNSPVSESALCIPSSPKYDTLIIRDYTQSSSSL

## COc1ccc(NC(=O)c2cc3c(C#Cc4ccc(C)cc4)ncnc3n2C)cc1
[1]
  IC50: 356 nM

## COc1ccc(C#Cc2ncnc3c2cc(C(=O)Nc2ccc(OC)cc2)n3C)cc1
[1]
  IC50: 84 nM

## Cn1c(C(=O)Nc2ccc(Cl)c(Cl)c2)cc2c(C#Cc3ccccc3)ncnc21
[1]
  IC50: 2030 nM

## Cn1c(C(=O)Nc2ccc(Cl)cc2)cc2c(C#Cc3ccc(F)cc3)ncnc21
[1]
  IC50: 248 nM

## Cn1c(C(=O)Nc2ccc(C(C)(C)C)cc2)cc2c(C#Cc3ccccc3)ncnc21
[1]
  IC50: 1390 nM

## CN(C)c1ccc(NC(=O)c2cc3c(C#Cc4ccc(F)cc4)ncnc3n2C)cc1
[1]
  IC50: 135 nM

## COc1ccc(NC(=O)c2cc3c(C#Cc4ccccn4)ncnc3n2C)cc1
[1]
  IC50: 922 nM

## Cn1c(C(=O)Nc2ccccc2)cc2c(C#Cc3ccc(F)cc3)ncnc21
[1]
  IC50: 62.2 nM

## Cc1ccc(C#Cc2ncnc3c2cc(C(=O)Nc2ccc(C)cc2)n3C)cc1
[1]
  IC50: 947 nM

## Cc1nc(C#Cc2ncnc3c2cc(C(=O)Nc2ccccc2)n3C)cs1
[1]
  IC50: 2280 nM

## Cn1c(C(=O)Nc2ccc(I)cc2)cc2c(C#Cc3ccccc3)ncnc21
[1]
  IC50: 194 nM

## CN(C)c1ccc(NC(=O)c2cc3c(C#Cc4ccccc4)ncnc3n2C)cc1
[1]
  IC50: 125 nM

## CN(C)c1ccc(NC(=O)c2cc3c(C#Cc4ccccn4)ncnc3n2C)cc1
[1]
  IC50: 2470 nM

## COc1ccc(NC(=O)c2cc3c(C#Cc4ccccc4)ncnc3n2C)cc1
[2]
  Activity: Active
[3]
  Activity: Active
[4]
  Activity: Active
[5]
  Activity: Active
[6]
  Activity: Active
[7]
  Activity: Active
[8]
  Activity: Active
[9]
  Activity: Active
[10]
  Activity: Non-Toxic
[11]
  Activity: Active
[12]
  Activity: Active
[13]
  Activity: Active
[14]
  Activity: inactive
[15]
  Activity: Non-Toxic
[16]
  Activity: Active
[17]
  Activity: Active
[18]
  Activity: Active
[19]
  Activity: Active
[20]
  Activity: Active
[21]
  Activity: Non-Toxic
[22]
  Activity: Active
[1]
  IC50: 11.5 nM

## Cc1ccc(C#Cc2ncnc3c2cc(C(=O)Nc2ccc(N(C)C)cc2)n3C)cc1
[1]
  IC50: 3760 nM

## Cc1ccc(C#Cc2ncnc3c2cc(C(=O)Nc2ccccc2)n3C)cc1
[1]
  IC50: 1380 nM

## Cn1c(C(=O)Nc2ccc(F)cc2)cc2c(C#Cc3ccc(F)cc3)ncnc21
[1]
  IC50: 90.8 nM

## COc1ccc(C#Cc2ncnc3c2cc(C(=O)Nc2ccc(F)cc2)n3C)cc1
[1]
  IC50: 482 nM

## Cn1c(C(=O)Nc2ccccc2)cc2c(C#Cc3ccccc3)ncnc21
[1]
  IC50: 75.4 nM

## Cc1nc(C#Cc2ccnc(Cl)c2)c(C)n1-c1ccc(F)cc1 [BASIMGLURANT]
[1]
  IC50: 4.3 nM

## COc1ccc(C#Cc2ncnc3c2cc(C(=O)Nc2ccccc2)n3C)cc1
[1]
  IC50: 764 nM

## COc1ccc(NC(=O)c2cc3c(C#Cc4csc(C)n4)ncnc3n2C)cc1
[1]
  IC50: 236 nM

## Cn1c(C(=O)Nc2ccc(C(C)(C)C)cc2)cc2c(C#Cc3ccccn3)ncnc21
[1]
  IC50: 2030 nM

## Cn1c(C(=O)Nc2ccc(Cl)cc2)cc2c(C#Cc3ccccc3)ncnc21
[1]
  IC50: 622 nM

## Cn1c(C(=O)Nc2ccc(F)cc2)cc2c(C#Cc3ccccn3)ncnc21
[1]
  IC50: 3180 nM

## Cc1ccc(C#Cc2ncnc3c2cc(C(=O)Nc2ccc(C(C)(C)C)cc2)n3C)cc1
[1]
  IC50: > 10000 nM

## COc1ccc(NC(=O)c2cc3c(C#Cc4ccc(F)cc4)ncnc3n2C)cc1
[1]
  IC50: 15.2 nM

## Cn1c(C(=O)Nc2cccc(Cl)c2)cc2c(C#Cc3ccccc3)ncnc21
[1]
  IC50: 529 nM

## COc1ccc(C#Cc2ncnc3c2cc(C(=O)Nc2ccc(N(C)C)cc2)n3C)cc1
[1]
  IC50: 824 nM

## Cc1ccc(NC(=O)c2cc3c(C#Cc4ccccc4)ncnc3n2C)cc1
[1]
  IC50: 38.9 nM

## Cc1ccc(NC(=O)c2cc3c(C#Cc4csc(C)n4)ncnc3n2C)cc1
[1]
  IC50: 5570 nM

## CNCCC(Oc1ccc(C(F)(F)F)cc1)c1ccccc1 (configuration not stated)
[23]
  Activity: Active
[24]
  Activity: Active
[25]
  Activity: Active
[26]
  Activity: Active
[27]
  Activity: Active
[28]
  Activity: inactive
[29]
  Activity: Active
[30]
  Activity: Active

## Cc1ccc(C#Cc2ncnc3c2cc(C(=O)Nc2ccc(F)cc2)n3C)cc1
[1]
  IC50: 1010 nM

## Cc1ccc(NC(=O)c2cc3c(C#Cc4ccc(F)cc4)ncnc3n2C)cc1
[1]
  IC50: 101 nM

## COc1ccc(C#Cc2ncnc3c2cc(C(=O)Nc2ccc(C(C)(C)C)cc2)n3C)cc1
[1]
  IC50: 734 nM

## Cn1c(C(=O)Nc2ccc(C(C)(C)C)cc2)cc2c(C#Cc3ccc(F)cc3)ncnc21
[1]
  IC50: 2340 nM

## COc1ccc(C#Cc2ncnc3c2cc(C(=O)Nc2ccc(C)cc2)n3C)cc1
[1]
  IC50: 241 nM

## Cn1c(C(=O)Nc2ccc(F)cc2)cc2c(C#Cc3ccccc3)ncnc21
[1]
  IC50: 63.6 nM

## Cn1c(C(=O)Nc2ccc(OC(F)(F)F)cc2)cc2c(C#Cc3ccccc3)ncnc21
[1]
  IC50: 308 nM
